According to ChEMBL document CHEMBL2321844, “Discovery of nosokophic acid, a predicted intermediate of moenomycins, from nosokomycin-producing Streptomyces sp. K04-0144” (2013):
≈ marks a conversion by molar mass, not a printed value. Calls of active or inactive are those of the source. No cut-off for these calls is given here.

Tests used:
Type in all cases: functional
Staphylococcus aureus [1] = assay: Antimicrobial activity against methicillin-resistant Staphylococcus aureus after 20 hrs by liquid microdilution method
Staphylococcus aureus [2] = assay: Potentiation of tetracycline antimicrobial activity against methicillin-resistant Staphylococcus aureus at 10 ug/ml after 20 hrs by liquid microdilution method
Staphylococcus aureus [3] = assay: Potentiation of streptomycin antimicrobial activity against methicillin-resistant Staphylococcus aureus at 10 ug/ml after 20 hrs by liquid microdilution method

Row | Structure (SMILES) | MIC (Staphylococcus aureus [1]) [µg/mL] | fractional inhibitory concentration index (FICI) (Staphylococcus aureus [2]) | fractional inhibitory concentration index (FICI) (Staphylococcus aureus [3]) | Activity (Staphylococcus aureus [1])
1 | CN(C)[C@@H]1C(O)=C(C(N)=O)C(=O)[C@@]2(O)C(O)=C3C(=O)c4c(O)cccc4[C@@](C)(O)[C@H]3C[C@@H]12 [TETRACYCLINE] | 32 (≈ 72 µM) | 1 |  | 
2 | C[C@@H](O)[C@H]1C(=O)N2C(C(=O)O)=C(SCCNC=N)C[C@H]12 [IMIPENEM ANHYDROUS] | 16 (≈ 53.4 µM) |  |  | 
3 | CN[C@@H]1[C@H](O[C@H]2[C@H](O[C@H]3[C@H](O)[C@@H](O)[C@H](N=C(N)N)[C@@H](O)[C@@H]3N=C(N)N)O[C@@H](C)[C@]2(O)C=O)O[C@@H](CO)[C@H](O)[C@H]1O [STREPTOMYCIN] | 2 (≈ 3.44 µM) |  | 1 | 
4 | CC(C)=CCC/C(C)=C/CC/C(C)=C\COC(COP(=O)(O)O[C@H]1O[C@H](C(N)=O)[C@H](O)[C@H](O)[C@H]1O)C(=O)O (some centres not stated) |  |  |  | inactive
5 | CN[C@H](CC(C)C)C(=O)N[C@H]1C(=O)N[C@@H](CC(N)=O)C(=O)N[C@H]2C(=O)N[C@H]3C(=O)N[C@H](C(=O)N[C@H](C(=O)O)c4cc(O)cc(O)c4-c4cc3ccc4O)[C@H](O)c3ccc(c(Cl)c3)Oc3cc2cc(c3O[C@@H]2O[C@H](CO)[C@@H](O)[C@H](O)[C@H]2O[C@H]2C[C@](C)(N)[C@H](O)[C@H](C)O2)Oc2ccc(cc2Cl)[C@H]1O [VANCOMYCIN] | 0.5 (≈ 0.345 µM) |  |  | 
